Assay [1] deals with Recombinant Human NF-kappaB-Inducing Kinase (NIK/MAP3K14) (Homo sapiens, UniProt Q99558). Description: Inhibition of auto-phosphorylation of recombinant human NIK/MAP3K14 activity (AlphaScreen). Format: biochemical. Conditions: 5 μM ATP, 1 nM NIK, average if tested more than once. The procedure, abridged: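 AlphaScreen detection of phospho-Ser176/180 after 1 nM GST-NIK auto-phosphorylates for 2 h at 25 °C with 5 μM ATP (50 mM Tris pH 7.5, 0.7% DMSO). IC50s come from sigmoidal curves of % inhibition against log dose, using enzyme-free, ATP-free low controls and full-activity high controls.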
Chain of Recombinant Human NF-kappaB-Inducing Kinase (NIK/MAP3K14) (Q99558 whole entry): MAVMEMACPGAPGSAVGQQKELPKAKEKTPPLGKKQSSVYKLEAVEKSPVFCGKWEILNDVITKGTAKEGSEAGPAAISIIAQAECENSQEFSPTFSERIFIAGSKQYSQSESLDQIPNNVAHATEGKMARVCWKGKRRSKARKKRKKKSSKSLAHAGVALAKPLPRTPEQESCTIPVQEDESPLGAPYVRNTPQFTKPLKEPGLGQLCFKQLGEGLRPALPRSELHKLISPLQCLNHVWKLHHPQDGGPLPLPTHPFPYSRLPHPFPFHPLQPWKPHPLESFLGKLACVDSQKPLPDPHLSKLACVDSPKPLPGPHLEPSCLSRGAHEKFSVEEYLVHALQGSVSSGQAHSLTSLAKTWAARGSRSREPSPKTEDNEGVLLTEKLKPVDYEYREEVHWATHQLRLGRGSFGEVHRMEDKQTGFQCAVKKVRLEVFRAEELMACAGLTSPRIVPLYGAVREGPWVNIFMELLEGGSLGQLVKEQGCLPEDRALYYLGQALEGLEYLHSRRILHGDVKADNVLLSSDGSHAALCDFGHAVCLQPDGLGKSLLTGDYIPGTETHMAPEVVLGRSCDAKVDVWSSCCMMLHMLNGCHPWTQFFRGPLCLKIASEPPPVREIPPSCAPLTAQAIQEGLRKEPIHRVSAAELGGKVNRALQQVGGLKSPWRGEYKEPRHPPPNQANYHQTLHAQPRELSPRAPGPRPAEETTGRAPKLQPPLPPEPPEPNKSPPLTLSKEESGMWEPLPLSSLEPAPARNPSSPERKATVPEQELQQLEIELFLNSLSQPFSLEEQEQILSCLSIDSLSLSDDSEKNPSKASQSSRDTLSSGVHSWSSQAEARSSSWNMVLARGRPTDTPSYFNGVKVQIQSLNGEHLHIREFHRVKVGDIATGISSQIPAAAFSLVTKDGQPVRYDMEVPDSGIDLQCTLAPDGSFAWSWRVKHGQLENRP
For orientation: In Alpha technology, singlet oxygen from a donor bead excites a nearby acceptor bead.

In assay [2] the test system is p-IKKa levels in L363 (NIK translocated multiple myeloma) cells. The assay is described as follows: Effect of compounds on p-IKKa levels in L363 (NIK translocated multiple myeloma) cells (AlphaLISA SureFire Ultra p-IKKa Ser176/180). Conditions: average if tested more than once, read-out: Assay 2 IC50. Format: cell-based, human. In short, it runs like this: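 Phospho-IKKa (Ser176/180) in lysates quantified by AlphaLISA after 6 h compound exposure, 11-point threefold dilutions, 0.3% DMSO. L363 cells were pre-stimulated overnight and assayed with 250 ng/ml BAFF and 10 μM MG132; % inhibition fitted sigmoidally for IC50, duplicate curves.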

Where [3] appears, read: Homo sapiens, L-363, p-IKKa levels in L363 cells.

Read-outs that look alike come from different tables or passages of the source.

By IC50 is commonly meant the concentration that inhibits the measured activity by half. For `C[C@H](Nc1nccc(-c2csc(-c3cccc([C@]4(O)CCN(C)C4=O)c3)n2)n1)c1cn[nH]c1` (single isomer, unassigned) [Example 138], the IC50 in assay [1] is less than 0.1 µM; in assay [2] (setting [3]), more than 0.501 µM.

Consider `CCn1cc(Nc2nccc(-c3csc(-c4cccc([C@]5(O)CCN(C)C5=O)c4)n3)n2)c(OC)n1` [Example 103, (R)-3-(3-(4-(2-((1-ethyl-3-methoxy-1H-pyrazol-4-yl)amino)pyrimidin-4-yl)thiazol-2-yl)phenyl)-3-hydroxy-1-methylpyrrolidin-2-one], for which the IC50 was less than 0.1 µM in assay [1] and 0.1 to 0.5 µM in assay [2] (setting [3]).

For `CN1CC[C@@](O)(c2cccc(-c3nc(-c4ccnc(Nc5ccnn5CC(F)F)n4)cs3)c2)C1=O` [Example 278, (R)-3-(3-(4-(2-((1-(2,2-Difluoroethyl)-1H-pyrazol-5-yl)amino)pyrimidin-4-yl)thiazol-2-yl)phenyl)-3-hydroxy-1-methylpyrrolidin-2-one], the IC50 in assay [1] is 0.1 to 0.5 µM; in assay [2] (setting [3]), more than 0.501 µM.

With `CN1CC[C@@](O)(c2cccc(-c3nc(-c4ccnc(Nc5cn(C)nn5)n4)cs3)c2)C1=O` [Example 283, (R)-3-hydroxy-1-methyl-3-(3-(4-(2-((1-methyl-1H-1,2,3-triazol-4-yl)amino)pyrimidin-4-yl)thiazol-2-yl)phenyl)pyrrolidin-2-one], the IC50 in assay [1] is less than 0.1 µM; in assay [2] (setting [3]), 0.1 to 0.5 µM.

As for `CC(C)Oc1nn(C)cc1Nc1nccc(-c2csc(-c3cccc([C@]4(O)CCN(C)C4=O)c3)n2)n1` [Example 100, (R)-3-hydroxy-3-(3-(4-(2-((3-isopropoxy-1-methyl-1H-pyrazol-4-yl)amino)pyrimidin-4-yl)thiazol-2-yl)phenyl)-1-methylpyrrolidin-2-one], the IC50 in assay [1] and in assay [2] (setting [3]) was less than 0.1 µM throughout.

`CN1CC[C@@](O)(c2cccc(-c3nc(-c4ccnc(NCCc5ccccn5)n4)cs3)c2)C1=O` [Example 189]: the 50% inhibitory concentration (IC50) in assay [1] was 0.1 to 0.5 µM; in assay [2] (setting [3]), more than 0.501 µM.

Turning to `Cc1cn(CC(F)(F)F)nc1Nc1nccc(-c2csc(-c3cccc([C@]4(O)CCN(C)C4=O)c3)n2)n1` [Example 245], the IC50 in assay [1] and in assay [2] (setting [3]) was more than 0.501 µM in each case.

As to `CN1CCO[C@@H](CNc2nccc(-c3csc(-c4cccc([C@]5(O)CCN(C)C5=O)c4)n3)n2)C1` [Example 213], the IC50 in assay [1] and in assay [2] (setting [3]) was more than 0.501 µM each time.

Take `COc1c(Nc2nccc(-c3csc(-c4cccc([C@]5(O)CCN(C)C5=O)c4)n3)n2)ccnc1C` [Example 74, (R)-3-hydroxy-3-(3-(4-(2-((3-methoxy-2-methylpyridin-4-yl)amino)pyrimidin-4-yl)thiazol-2-yl)phenyl)-1-methylpyrrolidin-2-one]: the IC50 is 0.1 to 0.5 µM in assay [1] and more than 0.501 µM in assay [2] (setting [3]).

In the case of `CN1CC[C@@](O)(c2cccc(-c3nc(-c4ccnc(Nc5cnn(CC(F)F)c5)n4)cs3)c2)C1=O` [Example 141, (R)-3-(3-(4-(2-((1-(2,2-difluoroethyl)-1H-pyrazol-4-yl)amino)pyrimidin-4-yl)thiazol-2-yl)phenyl)-3-hydroxy-1-methylpyrrolidin-2-one], the IC50 in assay [1] and in assay [2] (setting [3]) was less than 0.1 µM throughout.

Take `C[C@H](Nc1nccc(-c2csc(-c3cccc([C@]4(O)CCN(C)C4=O)c3)n2)n1)c1cncn1C` (single isomer, unassigned) [Example 133]: the IC50 is less than 0.1 µM in assay [1] and more than 0.501 µM in assay [2] (setting [3]).

Consider `CN1CC[C@@](O)(c2cccc(-c3nc(-c4ccnc(Nc5cnn(CC6CC6)c5)n4)cs3)c2)C1=O` [Example 287, (R)-3-(3-(4-(2-((1-(cyclopropylmethyl)-1H-pyrazol-4-yl)amino)pyrimidin-4-yl)thiazol-2-yl)phenyl)-3-hydroxy-1-methylpyrrolidin-2-one], for which the IC50 is less than 0.1 µM in assay [1] and 0.1 to 0.5 µM in assay [2] (setting [3]).

As to `CN1CCC(O)(c2cc(C#N)cc(-c3csc(-c4ccnc(Nc5ccn(C)n5)n4)n3)c2)C1=O` (single isomer, unassigned) [Example 57, 3-(3-hydroxy-1-methyl-2-oxopyrrolidin-3-yl)-5-(2-(2-((1-methyl-1H-pyrazol-3-yl)amino)pyrimidin-4-yl)thiazol-4-yl)benzonitrile], the IC50 in assay [1] was less than 0.1 µM; in assay [2] (setting [3]) it was more than 0.501 µM.

Turning to `CN1CC[C@@](O)(c2cccc(-c3nc(-c4ccnc(Nc5cccc(OC(F)F)n5)n4)cs3)c2)C1=O` [Example 168, (R)-3-(3-(4-(2-((6-(Difluoromethoxy)pyridin-2-yl)amino)pyrimidin-4-yl)thiazol-2-yl)phenyl)-3-hydroxy-1-methylpyrrolidin-2-one], the IC50 in assay [1] was less than 0.1 µM; in assay [2] (setting [3]), more than 0.501 µM.

For `CN1CC[C@@](O)(c2cccc(-c3nc(-c4ccnc(Nc5cnn6ccccc56)n4)cs3)c2)C1=O` [Example 264, (R)-3-Hydroxy-1-methyl-3-(3-(4-(2-(pyrazolo[1,5-a]pyridin-3-ylamino)pyrimidin-4-yl)thiazol-2-yl)phenyl)pyrrolidin-2-one], the IC50 in assay [1] and in assay [2] (setting [3]) was less than 0.1 µM each time.

As to `CN1CC[C@@](O)(c2cccc(-c3nc(-c4ccnc(Nc5cn(C)nc5OC5CCC5)n4)cs3)c2)C1=O` [Example 97, (R)-3-(3-(4-(2-((3-cyclobutoxy-1-methyl-1H-pyrazol-4-yl)amino)pyrimidin-4-yl)thiazol-2-yl)phenyl)-3-hydroxy-1-methylpyrrolidin-2-one], the IC50 in assay [1] and in assay [2] (setting [3]) was less than 0.1 µM throughout.

Regarding `COc1cc(Nc2nccc(-c3nc(-c4cccc([C@]5(O)CCN(C)C5=O)c4)cs3)n2)n(C)n1` [Example 84, (R)-3-hydroxy-3-(3-(2-(2-((3-methoxy-1-methyl-1H-pyrazol-5-yl)amino)pyrimidin-4-yl)thiazol-4-yl)phenyl)-1-methylpyrrolidin-2-one], the IC50 in assay [1] and in assay [2] (setting [3]) was more than 0.501 µM in each case.

In the case of `C[C@@H](Nc1nccc(-c2csc(-c3cccc([C@]4(O)CCN(C)C4=O)c3)n2)n1)c1cn[nH]c1` (single isomer, unassigned) [Example 293], the IC50 in assay [1] is less than 0.1 µM; in assay [2] (p-IKKa levels in L363 cells) it was 0.1 to 0.5 µM.

Take `C[C@H](Nc1nccc(-c2csc(-c3cccc([C@]4(O)CCN(C)C4=O)c3)n2)n1)c1ccccn1` [Example 186]: the results for the IC50 in assay [1] and in assay [2] (setting [3]) were 0.1 to 0.5 µM and more than 0.501 µM, respectively.

`CC(Nc1nccc(-c2nc(-c3cccc(C4(O)CCN(C)C4=O)c3)cs2)n1)c1cnn(C)c1` (single isomer, unassigned) [Example 39]: the IC50 in assay [1] and in assay [2] (p-IKKa levels in L363 cells) was less than 0.1 µM in each case.

On to `Cc1ccc(CNc2nccc(-c3csc(-c4cccc([C@]5(O)CCN(C)C5=O)c4)n3)n2)nc1` [Example 203], for which the results for the IC50 in assay [1] and in assay [2] (setting [3]) were less than 0.1 µM and more than 0.501 µM, respectively.

Consider `CN1CC[C@@](O)(c2cccc(-c3nc(-c4ccnc(NCCNS(C)(=O)=O)n4)cs3)c2)C1=O` [Example 237], for which the IC50 is less than 0.1 µM in assay [1] and more than 0.501 µM in assay [2] (setting [3]).

With `CN1CC[C@@](O)(c2cccc(-c3nc(-c4ccnc(NC5CCOc6cccnc65)n4)cs3)c2)C1=O` (some centres unmarked) [Example 227], the IC50 is less than 0.1 µM in assay [1] and more than 0.501 µM in assay [2] (setting [3]).

Consider `CN1CC[C@@](O)(c2cccc(-c3nc(-c4ccnc(NC[C@H]5CCOC5)n4)cs3)c2)C1=O` [Example 192], for which the IC50 in assay [1] was 0.1 to 0.5 µM; in assay [2] (setting [3]), more than 0.501 µM.

Turning to `CN1CC[C@@](O)(c2cccc(-c3csc(-c4ccnc(Nc5cnn6cccnc56)n4)n3)c2)C1=O` [Example 85, (R)-3-hydroxy-1-methyl-3-(3-(2-(2-(pyrazolo[1,5-a]pyrimidin-3-ylamino)pyrimidin-4-yl)thiazol-4-yl)phenyl)pyrrolidin-2-one], the IC50 in assay [1] and in assay [2] (setting [3]) was less than 0.1 µM in each case.

Turning to `CN1CC[C@@](O)(c2cccc(-c3nc(-c4ccnc(NCCCS(C)(=O)=O)n4)cs3)c2)C1=O` [Example 232], the IC50 is 0.1 to 0.5 µM in assay [1] and more than 0.501 µM in assay [2] (setting [3]).

`CN1C(=O)[C@@](O)(c2ccnc(-c3csc(-c4ccnc(Nc5ccn(C)n5)n4)n3)c2)C[C@@H]1C(F)(F)F` (single isomer, unassigned) [Example 60]: the IC50 in assay [1] was 0.1 to 0.5 µM; in assay [2] (setting [3]) it was more than 0.501 µM.

In the case of `CNC(=O)c1cc(Nc2nccc(-c3csc(-c4cccc([C@]5(O)CCN(C)C5=O)c4)n3)n2)c(OC2CC2)cc1F` [Example 12, (R)-4-Cyclopropoxy-2-fluoro-5-((4-(2-(3-(3-hydroxy-1-methyl-2-oxopyrrolidin-3-yl)phenyl)thiazol-4-yl)pyrimidin-2-yl)amino)-N-methylbenzamide], the IC50 in assay [1] is less than 0.1 µM; in assay [2] (setting [3]) it was 0.1 to 0.5 µM.

Regarding `Cc1cnc(CNc2nccc(-c3csc(-c4cccc([C@]5(O)CCN(C)C5=O)c4)n3)n2)nc1` [Example 208], the IC50 in assay [1] and in assay [2] (setting [3]) was more than 0.501 µM throughout.

For the compound `CN1CCC(O)(c2cc(F)cc(-c3csc(-c4ccnc(Nc5ccn(C)n5)n4)n3)c2)C1=O` (single isomer, unassigned) [Example 26, 3-(3-fluoro-5-(2-(2-((1-methyl-1H-pyrazol-3-yl)amino)pyrimidin-4-yl)thiazol-4-yl)phenyl)-3-hydroxy-1-methylpyrrolidin-2-one], the IC50 in assay [1] and in assay [2] (p-IKKa levels in L363 cells) was more than 0.501 µM throughout.

Turning to `CN1CC[C@@](O)(c2cccc(-c3nc(-c4ccnc(Nc5ccnnc5)n4)cs3)c2)C1=O` [Example 267, (R)-3-hydroxy-1-methyl-3-(3-(4-(2-(pyridazin-4-ylamino)pyrimidin-4-yl)thiazol-2-yl)phenyl)pyrrolidin-2-one], the IC50 in assay [1] and in assay [2] (setting [3]) was more than 0.501 µM throughout.

Values taken from US20250304567A1, “PYRROLIDIONE DERIVATIVES AS INHIBITORS OF NF KAPPA B INDUCING KINASE” (priority 2022, published 2025).
